Source: the supplement of paper PMC11061612

Columns and labels:
[1] = system: JHH-4 (Hepatocellular Carcinoma); assay: combination Emax (second highest fraction inhibited in the dose matrix, 72 h); higher = more inhibition; extreme values may be limits of the assay
Method in brief: (§1)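 Bliss excess equals the observed combination effect minus the expected value EA + EB − EA·EB, where EA and EB are the effects of each agent alone. Combination Emax is the second-highest inhibition within the matrix. Inhibition was scaled from CellTiter-Glo 2.0 luminescence, with 0 set by vehicle wells and 1 by blank wells, after 72 hours of two-drug dosing of cells plated in 1536-well plates.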

[2] = system: KMS-12-BM (Plasma Cell Myeloma); assay: Bliss excess, mean over the matrix (fraction); higher = more synergy
Method in brief: as §1

[3] = system: ESO51 (Esophageal Adenocarcinoma); assay: as above
Method in brief: as §1

[4] = system: COR-L279 (Small Cell Lung Carcinoma); assay: as above
Method in brief: as §1

[5] = system: NCI-H661 (Non-Small Cell Lung Carcinoma); assay: as above
Method in brief: as §1

[6] = system: MOG-G-CCM (Low Grade Glioma); assay: as above
Method in brief: as §1

[7] = system: IM-95 (Gastric Carcinoma); assay: as above
Method in brief: as §1

[8] = system: MN-60 (B-Lymphoblastic Leukemia); assay: as above
Method in brief: as §1

RD (Rhabdomyosarcoma) = assay: as above
Method in brief: as §1

[9] = system: NCI-H520 (Squamous Cell Lung Carcinoma); assay: as above
Method in brief: as §1

[10] = system: KU812 (Chronic Myelogenous Leukemia); assay: as above
Method in brief: as §1

[11] = system: 8505C (Thyroid Gland Carcinoma); assay: as above
Method in brief: as §1

[12] = system: VMRC-RCZ (Kidney Carcinoma); assay: as above
Method in brief: as §1

[13] = system: NCI-H929 (Plasma Cell Myeloma); assay: as above
Method in brief: as §1

SJSA-1 (Osteosarcoma) = assay: as above
Method in brief: as §1

[14] = system: SUP-B15 (B-Lymphoblastic Leukemia); assay: as above
Method in brief: as §1

[15] = system: KY821 (Acute Myeloid Leukemia); assay: as above
Method in brief: as §1

[16] = system: PC-3 (Prostate Carcinoma); assay: as above
Method in brief: as §1

M059J (Glioblastoma) = assay: as above
Method in brief: as §1

[17] = system: DMS-114 (Small Cell Lung Carcinoma); assay: as above
Method in brief: as §1

| SMILES | combination Emax [1] | Bliss excess [2] | Bliss excess [3] | Bliss excess [4] | Bliss excess [5] | Bliss excess [6] | Bliss excess [7] | Bliss excess [8] | Bliss excess (RD (Rhabdomyosarcoma)) | Bliss excess [9] | Bliss excess [10] | Bliss excess [11] | Bliss excess [12] | Bliss excess [13] | Bliss excess (SJSA-1 (Osteosarcoma)) | Bliss excess [14] | Bliss excess [15] | Bliss excess [16] | Bliss excess (M059J (Glioblastoma)) | Bliss excess [17] |
| --- | --- | --- | --- | --- | --- | --- | --- | --- | --- | --- | --- | --- | --- | --- | --- | --- | --- | --- | --- | --- |
| Cc1c2c(nn1C)CSCc1cc(n(C)n1)CSc1cc(c3ccccc3c1)OCCCc1c(C(=O)O)n(C)c3c-2c(Cl)ccc13 [AZD5991] + C[C@@H]1COCCN1C2=NC(=NC(=C2)C3(CC3)[S@](=N)(=O)C)C4=C5C=CNC5=NC=C4 [AZD6738] (first compound max 1 µM, 7x7, partner max 10 µM) | 0.369 | -0.009 | 0.0124 | -0.0057 | 0.0528 | -0.0252 | -0.0412 | -0.0081 | 0.0482 | -0.0091 | 0.0296 | 0.0148 | 0.0308 | -0.0296 | 0.0711 | 0.0181 | -0.0356 | 0.035 | -0.0165 | 0.0436 |
| COc1nnc2ccc(N3CCC(c4ccc(OCCN5CCN(C)C(=O)[C@H]5C)cc4)CC3)nn12 [AZD5153] + CC1(C)CCC(CN2CCN(c3ccc(C(=O)NS(=O)(=O)c4ccc(NCC5CCOCC5)c([N+](=O)[O-])c4)c(Oc4cnc5[nH]ccc5c4)c3)CC2)=C(c2ccc(Cl)cc2)C1 [Venetoclax] (first compound max 1 µM, 7x7, partner max 1 µM) | 0.392 | 0.0033 | -0.0346 | -0.0945 | -0.0574 | -0.0471 | -0.0663 | -0.0708 | -0.041 | -0.0179 | -0.058 | -0.07 | -0.0224 | 0.0001 | -0.0481 | 0.0051 | -0.0376 | -0.109 | -0.0124 | -0.0732 |
| CC(=O)Nc1cccc(-n2c(=O)n(C3CC3)c(=O)c3c(Nc4ccc(I)cc4F)n(C)c(=O)c(C)c32)c1 [Trametinib] + Cc1nc(-c2cn3c(n2)-c2ccc(-c4cnn(C(C)(C)C(N)=O)c4)cc2OCC3)n(C(C)C)n1 [Taselisib] (first compound max 1 µM, 7x7, partner max 10 µM) | 0.997 | 0.103 | 0.0533 | -0.0486 | 0.115 | 0.0182 | 0.196 | 0.0265 | 0.261 | 0.0256 | 0.111 | 0.142 | 0.0186 | 0.0401 | 0.0501 | 0.539 | -0.0601 | -0.0138 | 0.0493 | 0.079 |
| COc1cc2ncnc(Nc3ccc(F)c(Cl)c3)c2cc1OCCCN1CCOCC1 [Gefitinib] + CC(C)n1c(=O)n(C)c2cnc3cc(F)c(-c4ccc(OCCCN5CCCCC5)nc4)cc3c21 [AZD1390] (first compound max 10 µM, 7x7, partner max 0.3 µM) | 0.234 | -0.0267 | -0.0488 | -0.0419 | -0.097 | -0.0271 | -0.0527 | -0.0444 | -0.0699 | -0.0477 | -0.0436 | -0.0691 | -0.0621 | -0.0092 | -0.0562 | -0.0673 | -0.0553 | -0.0643 | -0.0325 | -0.0579 |
| Cc1c2c(nn1C)CSCc1cc(n(C)n1)CSc1cc(c3ccccc3c1)OCCCc1c(C(=O)O)n(C)c3c-2c(Cl)ccc13 [AZD5991] + C[C@@H](Nc1cc(F)cc(F)c1)c1cc(C(=O)N(C)C)cc2c(=O)cc(N3CCOCC3)oc12 [AZD8186] (first compound max 1 µM, 7x7, partner max 3 µM) | 0.271 | 0.0019 | -0.0134 | -0.0011 | 0.0181 | -0.0316 | -0.0348 | -0.0454 | 0.0195 | -0.0474 | -0.0554 | -0.0043 | 0.0141 | -0.0218 | -0.105 | -0.0091 | 0.0034 | 0.0051 | -0.0842 | -0.0338 |
| CC(=O)c1c(C)c2cnc(Nc3ccc(N4CCNCC4)cn3)nc2n(C2CCCC2)c1=O [Palbociclib] + Cc1c2c(nn1C)CSCc1cc(n(C)n1)CSc1cc(c3ccccc3c1)OCCCc1c(C(=O)O)n(C)c3c-2c(Cl)ccc13 [AZD5991] (first compound max 10 µM, 7x7, partner max 1 µM) | 0.397 | 0.035 | -0.0192 | 0.006 | -0.0443 | -0.0595 | -0.114 | -0.0363 | 0.0077 | 0.0024 | -0.0351 | -0.175 | -0.026 | 0.0099 | -0.0426 | -0.207 | -0.0372 | -0.0501 | -0.0303 | -0.0083 |
| CC(=O)c1c(C)c2cnc(Nc3ccc(N4CCNCC4)cn3)nc2n(C2CCCC2)c1=O [Palbociclib] + Cn1cnc2c(F)c(Nc3ccc(Br)cc3Cl)c(C(=O)NOCCO)cc21 [Selumetinib] (first compound max 10 µM, 7x7, partner max 10 µM) | 0.59 | 0.0219 | 0.0041 | -0.025 | -0.0533 | -0.0511 | 0.0356 | -0.0405 | 0.0455 | -0.054 | -0.0536 | -0.0377 | -0.0367 | 0.0643 | -0.038 | 0.0147 | 0.0803 | -0.0627 | -0.0441 | -0.0065 |
| C=CCn1c(=O)c2cnc(Nc3ccc(N4CCN(C)CC4)cc3)nc2n1-c1cccc(C(C)(C)O)n1 [AZD1775] + C[C@@H]1COCCN1C2=NC(=NC(=C2)C3(CC3)[S@](=N)(=O)C)C4=C5C=CNC5=NC=C4 [AZD6738] (first compound max 1 µM, partner max 10 µM) | 0.498 | 0.0418 | -0.0247 | 0.0131 | 0.0157 | 0.0195 | 0.0804 | 0.0165 | 0.0125 | -0.0133 | 0.0459 | -0.0076 | -0.0639 | -0.0042 | 0.0047 | 0.0535 | 0.0358 | -0.0049 | -0.0206 | 0.0422 |
| COc1cccc2c1C(=O)c1c(O)c3c(c(O)c1C2=O)C[C@@](O)(C(=O)CO)C[C@@H]3O[C@H]1C[C@H](N)[C@H](O)[C@H](C)O1 [Doxorubicin] + Cc1cc2ncnn2cc1Nc1ncc2c(n1)n(C1CCOCC1)c(=O)n2C [AZD7648] (first compound max 1 µM, 7x7, partner max 10 µM) | 0.666 | 0.0946 | 0.0291 | 0.0715 | 0.0465 | 0.0213 | 0.016 | 0.0759 | 0.0368 | 0.0158 | 0.0256 | 0.0859 | -0.024 | 0.126 | 0.0555 | 0.153 | 0.0822 | 0.0175 | -0.0255 | 0.0288 |
| CC1(C)CCC(CN2CCN(c3ccc(C(=O)NS(=O)(=O)c4ccc(NCC5CCOCC5)c([N+](=O)[O-])c4)c(Oc4cnc5[nH]ccc5c4)c3)CC2)=C(c2ccc(Cl)cc2)C1 [Venetoclax] + C1CN(CCC1(C(=O)N[C@@H](CCO)C2=CC=C(C=C2)Cl)N)C3=NC=NC4=C3C=CN4 [Capivasertib] (first compound max 1 µM, 7x7, partner max 3 µM) | 0.119 | 0.0559 | -0.0379 | 0.0055 | -0.0218 | -0.0568 | -0.0067 | -0.0485 | -0.0226 | -0.0275 | -0.046 | -0.027 | -0.0236 | -0.0099 | -0.0509 | 0.0077 | 0.0303 | -0.046 | 0.0099 | -0.0467 |
| Cc1cc2ncnn2cc1Nc1ncc2c(n1)n(C1CCOCC1)c(=O)n2C [AZD7648] + C=CCn1c(=O)c2cnc(Nc3ccc(N4CCN(C)CC4)cc3)nc2n1-c1cccc(C(C)(C)O)n1 [AZD1775] (first compound max 10 µM, partner max 1 µM) | 0.483 | 0.0085 | -0.0433 | -0.0595 | -0.0135 | -0.0309 | 0.0212 | -0.0316 | -0.0168 | 0.004 | 0.0177 | -0.0235 | 0.0117 | -0.0572 | -0.024 | 0.0174 | -0.0098 | -0.0415 | -0.0821 | -0.0151 |
| CC1(C)CCC(CN2CCN(c3ccc(C(=O)NS(=O)(=O)c4ccc(NCC5CCOCC5)c([N+](=O)[O-])c4)c(Oc4cnc5[nH]ccc5c4)c3)CC2)=C(c2ccc(Cl)cc2)C1 [Venetoclax] + Cn1cnc2c(F)c(Nc3ccc(Br)cc3Cl)c(C(=O)NOCCO)cc21 [Selumetinib] (first compound max 1 µM, 7x7, partner max 3 µM) | 0.188 | -0.0118 | -0.0106 | 0.0007 | -0.0243 | -0.0697 | -0.0187 | -0.0478 | -0.0425 | -0.0351 | -0.0125 | -0.0184 | -0.0422 | 0.027 | -0.0431 | 0.108 | 0.0329 | -0.0484 | -0.0391 | -0.0371 |
| CC1(C)CCC(CN2CCN(c3ccc(C(=O)NS(=O)(=O)c4ccc(NCC5CCOCC5)c([N+](=O)[O-])c4)c(Oc4cnc5[nH]ccc5c4)c3)CC2)=C(c2ccc(Cl)cc2)C1 [Venetoclax] + CN(C)CCCOc1ccc(-c2ccc3ncc4c(c3c2)n(C2CCOCC2)c(=O)n4C)cn1 [AZD0156] (first compound max 1 µM, 7x7, partner max 1 µM) | 0.234 | 0.0078 | -0.014 | 0.0043 | 0.0037 | -0.0198 | -0.0016 | -0.0045 | -0.0332 | -0.048 | -0.0404 | 0.0155 | -0.0492 | 0.0294 | -0.0358 | -0.0392 | -0.0104 | -0.0363 | -0.0173 | -0.0436 |
| Cc1nc(Nc2ncc(C(=O)Nc3c(C)cccc3Cl)s2)cc(N2CCN(CCO)CC2)n1 [Dasatinib] + CC(=O)Nc1cccc(-n2c(=O)n(C3CC3)c(=O)c3c(Nc4ccc(I)cc4F)n(C)c(=O)c(C)c32)c1 [Trametinib] (first compound max 2 µM, 7x7, partner max 1 µM) | 1 | -0.0046 | -0.0066 | -0.0073 | -0.0528 | -0.0782 | -0.0551 | -0.029 | 0.188 | -0.0488 | -0.0046 | 0.0809 | -0.0257 | -0.075 | 0.0005 | -0.0562 | -0.144 | -0.0759 | -0.0946 | -0.0036 |
